Laboratory results as given in ChEMBL document CHEMBL5608208, “Design, synthesis of griseofamine A derivatives and development of potent antibacterial agents against MRSA” (Eur J Med Chem, 2024).
In brackets after ≈: the same amount, converted by molar mass. Activity calls are given as the source filed them. The rule behind the calls is not given here.

Tests used:
[1] = Cmax in ICR mouse at 1 mg/kg, iv; assay type: ADME, organism-based; conditions: in vivo
[2] = Acute toxicity in ICR mouse assessed as change in water intake at 2 g/kg, po measured after 7 days; assay type: organism-based; conditions: in vivo, 2000 mg/kg, 168 h, time 7 day
Staphylococcus aureus [3] = experiment: Bactericidal activity against methicillin resistant Staphylococcus aureus ATCC 33592 incubated for 18 to 24 hrs; assay type: functional; conditions: time 18-24 hrs
[4] = AUC(0 to infinity) in ICR mouse at 1 mg/kg, iv; assay type: ADME, organism-based; conditions: in vivo
Staphylococcus aureus [5] = experiment: Antibacterial activity against methicillin resistant Staphylococcus aureus ATCC 33592 assessed as surface collapse at MIC incubated for 1 to 6 hrs by SEM analysis; assay type: functional, organism-based; conditions: time 1-6 hrs
[6] = Half-life in ICR mouse at 5 mg/kg, po; assay type: ADME, organism-based; conditions: in vivo
Staphylococcus aureus [7] = experiment: Potency index, ratio of griseofamine A MIC to test compound MIC for antibacterial activity against methicillin resistant Staphylococcus aureus ATCC 43300; assay type: functional
[8] = Cytotoxicity against mouse MLg cells assessed as survival rate at 23.5 ug/ml incubated for 24 hrs by MTS method; assay type: toxicity, cell-based; conditions: at 23.5 µg/mL, read-out: Survival
[9] = tested on: Staphylococcus epidermidis; experiment: Bactericidal activity against Staphylococcus epidermidis ATCC 12228 incubated for 18 to 24 hrs; assay type: functional; conditions: time 18-24 hrs
Staphylococcus aureus [10] = experiment: Drug resistance development in methicillin resistant Staphylococcus aureus […] assessed as increase in MIC value measured after 8 passages by broth microdilution method; assay type: functional
[11] = AUC(0 to infinity) in ICR mouse at 5 mg/kg, po; assay type: ADME, organism-based; conditions: in vivo
Staphylococcus aureus [12] = experiment: Bactericidal activity against Staphylococcus aureus ATCC 29213 incubated for 18 to 24 hrs; assay type: functional; conditions: time 18-24 hrs
Cell membrane = experiment: Induction of bacterial cell membrane damage in methicillin resistant Staphylococcus aureus ATCC 33592 assessed as increase in fluorescence intensity at MIC incubated for 2 hrs by PI staining based microplate reader assay; assay type: cell membranes
Staphylococcus aureus [13] = experiment: Drug resistance development in methicillin resistant Staphylococcus aureus ATCC 43300 assessed as increase in MIC value measured after 8 passages by broth microdilution method; assay type: functional
[14] = Bioavailability in ICR mouse at 5 mg/kg, po; assay type: ADME, organism-based; conditions: in vivo
Staphylococcus aureus [15] = experiment: Antibacterial activity against methicillin resistant Staphylococcus aureus ATCC 43300 infected in ip dosed ICR mouse systemic infection model pretreated with bacteria for 30 mins followed by compound addition and measured for 7 days; assay type: functional, organism-based; conditions: dose 1.25-5 mg/kg, time 7.0 day
[16] = Acute toxicity in ICR mouse assessed as aberrant behavior at 2 g/kg, po measured after 7 days; assay type: organism-based; conditions: in vivo, 2000 mg/kg, 168 h, time 7 day
Staphylococcus aureus [17] = experiment: Antibacterial activity against methicillin resistant Staphylococcus aureus ATCC 43300 infected in ICR mouse systemic infection model at 5 mg/kg, ip pretreated with bacteria for 30 mins followed by compound addition and measured for 7 days; assay type: functional; conditions: time 7 day
[18] = Volume of distribution in ICR mouse at 5 mg/kg, po; assay type: ADME, organism-based; conditions: in vivo
[19] = AUC(0 to t) in ICR mouse at 1 mg/kg, iv; assay type: ADME, organism-based; conditions: in vivo

## C/C(O)=C1\C(=O)[C@@H]2Cc3c([nH]c4ccccc34)[C@@H](c3ccc(-c4cc(F)cc(F)c4)cc3)N2C1=O
[1]
  Cmax: 748 ng/mL
[2]
  Activity: Non-Toxic
Staphylococcus aureus [3]
  MBC: 0.5 µg/mL (≈ 1.06 µM)
[4]
  AUC(0-inf): 4290 ng·h/mL
Staphylococcus aureus [5]
  Activity: Active
[6]
  half-life: 7.91 h
Staphylococcus aureus [7]
  Ratio: 128
[8]
  viability at 24 h, 23.5 ug/ml: > 80%
[9]
  MBC: 0.25 µg/mL (≈ 0.531 µM)
Staphylococcus aureus [10]
  MIC: 2 µg/mL
[11]
  AUC(0-inf): 2570 ng·h/mL
Staphylococcus aureus [12]
  MBC: 1 µg/mL (≈ 2.13 µM)
Cell membrane
  Activity: Active
Staphylococcus aureus [13]
  MIC: 2 µg/mL
[14]
  bioavailability: 11.6%
Staphylococcus aureus [15]
  Activity: Dose-Dependent Effect
[16]
  Activity: Non-Toxic
Staphylococcus aureus [17]
  Activity: 87.5%
[18]
  Vd: 21.714 L/kg
[19]
  AUC(0-t): 4240 ng·h/mL
